From article PMC4769088, “Antifungal Activity and Action Mechanism of Histatin 5-Halocidin Hybrid Peptides against Candida ssp” (PLoS ONE, 2016) come the findings set out here.

Where a SMILES comes first, the peptide text is derived from it. Bridges are numbered along the chain shown (N, C = ends). Roman numbers before positions name the chains, in order.

Data set [1] can be described thus: CD spectra, secondary structure analysis. The data set is classed as physicochemical. Particulars: solvent Laminarin (20 mg/ml in buffer), 200 μg/ml peptide.
For a further data set, the system named is C. tropicalis. In words: Broth dilution assay (MIC). Type of data set: cell-based, Candida tropicalis. The settings on record: 150 mM NaCl. As to the method: (§1) To determine the candidacidal activity of the peptides, we used Candida strains obtained from the Culture collection of antimicrobial resistant microbes at Seoul Women’s University in Korea. These included three Candida albicans (CCARM 14020, 14021, 14022), Candida guillermondi and Candida tropicalis. In addition, Candida albicans SC5413 was kindly provided by Dr Jeong-Yoon Kim at the Department of Microbiology & Molecular Biology, Chungnam University, Korea. Yeast were cultured overnight at 30°C in 10 ml of yeast extract-peptone-dextrose (YPD) broth (Qbiogene), then diluted in 10 ml of YPD broth to OD600 = 0.2 and grown for an additional 4 h with shaking at 30°C until OD600 = 0.8 in order to obtain mid-log phase cultures. The peptides (Hst 5, P113, HHP1, HHP2, PH1, PH2, di-PH1, di-PH2, WP1, di-WP2, di-15Hc and di-18Hc) in this study were synthesized by using standard solid-phase synthesis protocols and were purified by reversed-phase high-performance liquid chromatography at Anygen Inc. (Korea). FITC-labeled peptides (F-Hst5, F-P113, F-HHP1, F-di-PH2, F-di-WP2 and F-di-18Hc) were also synthesized by 6-aminohexnoic acid linker at Anygen (Korea) for confocal experiments.
The candidacidal activities of the peptides were tested by using standard microdilution plate assays, radial diffusion assays and broth dilution assay slightly modified from the procedure recommended by the National Committee for Clinical Laboratory Standards. For the candidacidal assays, C. albicans cells were grown in YPD medium and washed twice with 10 mM sodium phosphate buffer (NaPB; Na2HPO4, NaH2PO4, pH 7.4). The cells (1 x 10^6) were then mixed with different concentrations of peptides and incubated at 30°C with constant shaking for 60 min. For energy depletion experiments, cells were pre-incubated with 10 mM NaPB containing 5 mM NaN3 at 30°C for 60 min before the addition of peptides. The cell suspensions were diluted in 10 mM NaPB and aliquots of 500 cells were spread onto YPD agar plates then incubated for 24 h at 30°C to visualize the surviving colonies. Cell survival was expressed as a percentage of that for the control, and the loss of viability was calculated as [1 x (number of colonies from peptide-treated cells/number of colonies from control cells)] x 100. Candidacidal assays were performed in triplicate. For the radial diffusion assay, C. albicans cells were grown in YPD medium overnight and washed twice with 10 mM NaPB. […] The clear-zone diameters were measured to the nearest 0.1 mm and graphed against the peptide concentration. […] The numbers of yeasts were counted using a hemocytometer. […] The antifungal activities were evaluated after 24 h of incubation at 30°C by the observation of visible turbidity the wells. […]
In general terms: Dilution methods test growth across graded concentrations, often in twofold steps.

Another data set concerns Candida cells. In words: ROS production (DCFH-DA fluorometric assay). The data set is classed as cell-based, Candida albicans. The settings on record: 32 μg/ml peptide, 120 min, 10 μM DCFH-DA, ex 485 / em 530 nm. The protocol: The amount of ROS produced by Candida cells treated with peptides was measured by a fluorometric assay with DCFHDA as described earlier. Briefly, the cells were adjusted to an OD600 of 1 in 10 ml of NaPB and centrifuged at 5000 ×g for 10 min. The cell pellet was then resuspended in NaPB and treated with peptides alone or with ascorbic acid. After the addition of 10 μM 2`,7`dichlorofluorescein diacetate (DCFH-DA), the fluorescence intensity of the induced ROS production was recorded every 10 min at excitation and emission wavelengths of 485 nm and 530 nm, respectively, in a Perkin Elmer 2030 Reader (Victor X3).  Fig 7 The effect of peptides on ROS generation. Time-dependency of DCF fluorescence as a measure of ROS generation (A) and killing activity (B) were determined in Candida cells treated with peptides (32 μg/ml) or peptides + Ascorbic acid (200 μg/ml) by Perkin Elmer 2030 reader (VictorX 3) and colony count assay, respectively. The fluorescence obtained with the cells treated with 10 mM of H2O2 served as positive control and the cells without peptide served as negative control. The fluorescent intensity of DCF was recorded every 10 min for 120 min at excitation and emission wavelengths of 485 and 530 nm, respectively.

The test system of data set [2] is C. guilliermondi CCARM 14019. Type of data set: cell-based. The settings on record: CCARM 14019, 24 h. As to the method: as §1
(§2) The candidacidal activities of the peptides were tested by using standard microdilution plate assays, radial diffusion assays and broth dilution assay slightly modified from the procedure recommended by the National Committee for Clinical Laboratory Standards. For the candidacidal assays, C. albicans cells were grown in YPD medium and washed twice with 10 mM sodium phosphate buffer (NaPB; Na2HPO4, NaH2PO4, pH 7.4). The cells (1 x 10^6) were then mixed with different concentrations of peptides and incubated at 30°C with constant shaking for 60 min. For energy depletion experiments, cells were pre-incubated with 10 mM NaPB containing 5 mM NaN3 at 30°C for 60 min before the addition of peptides. The cell suspensions were diluted in 10 mM NaPB and aliquots of 500 cells were spread onto YPD agar plates then incubated for 24 h at 30°C to visualize the surviving colonies. Cell survival was expressed as a percentage of that for the control, and the loss of viability was calculated as [1 x (number of colonies from peptide-treated cells/number of colonies from control cells)] x 100. Candidacidal assays were performed in triplicate. For the radial diffusion assay, C. albicans cells were grown in YPD medium overnight and washed twice with 10 mM NaPB. Washed yeast-phase C. albicans cells (1 x 10^6 CFU) were trapped in thin underlay gels containing 9 mM sodium phosphate, 1 mM sodium citrate buffer, 1% (wt/vol) agarose (A6013; Sigma), and 0.3 mg of Sabouraud dextrose broth (Difco)/ml. After incubation at 37°C for 3 h, a 10 ml overlay gel of 1% agarose and 6% Sabouraud dextrose broth was poured on the underlay gel and then the plates were incubated overnight at 37°C. The clear-zone diameters were measured to the nearest 0.1 mm and graphed against the peptide concentration. Zone diameters were expressed in units (0.1 mm = 1 unit). For the broth dilution assay, the Candida strains were cultured in LYM broth for 18 h at 30°C. The numbers of yeasts were counted using a hemocytometer. Stock peptide solutions were prepared to a concentration of 320 μg/ml in distilled water, and were then serially diluted twofold, to 5 μg/ml. 100 μl aliquots of the diluted culture media containing candida cells (1 x 10^3) were dispensed into the wells of 96-well polypropylene microtiter plates (Costar 3879, Corning, NY), to which peptide solution (11 μl) was then added. In the experiments conducted to assess the candidacidal activity of peptides in the presence of salt, we used LYM supplemented with 150 mM NaCl for the culture medium, which was mixed with the peptide solution. The antifungal activities were evaluated after 24 h of incubation at 30°C by the observation of visible turbidity the wells. […]

Data set [3] relates to C. guilliermondi CCARM 14018. Type of data set: cell-based. Particulars: CCARM 14018, 24 h. The protocol: as §1, §2
The test system of another data set is C. albicans strains. Put plainly: Broth dilution assay (MIC), C. albicans strains. Type of data set: cell-based, Candida albicans. Particulars: 150 mM NaCl versus no salt, C. albicans strains. As to the method: as §1
as §2, with “100 μl aliquots of the diluted culture media containing candida cells (1 x 10^3) were dispensed into the wells of 96-well polypropylene microtiter plates (Costar 3879, Corning, NY), to which peptide solution (11 μl) was then added. In the experiments conducted to assess the candidacidal activity of peptides in the presence of salt, we used LYM supplemented with 150 mM NaCl for the culture medium, which was mixed with the peptide solution.” left out

Take `CC(C)C[C@H](NC(=O)[C@@H](N)Cc1c[nH]c2ccccc12)C(=O)N[C@@H](CC(N)=O)C(=O)N[C@@H](C)C(=O)N[C@@H](CCCCN)C(=O)N[C@@H](CCCNC(=N)N)C(=O)N[C@@H](Cc1c[nH]cn1)C(=O)N[C@@H](Cc1c[nH]cn1)C(=O)NCC(=O)N[C@@H](Cc1ccc(O)cc1)C(=O)N[C@@H](CCCCN)C(=O)N[C@@H](CSSC[C@H](NC(=O)[C@H](CCCCN)NC(=O)[C@H](Cc1ccc(O)cc1)NC(=O)CNC(=O)[C@H](Cc1c[nH]cn1)NC(=O)[C@H](Cc1c[nH]cn1)NC(=O)[C@H](CCCNC(=N)N)NC(=O)[C@H](CCCCN)NC(=O)[C@H](C)NC(=O)[C@H](CC(N)=O)NC(=O)[C@H](CC(C)C)NC(=O)[C@@H](N)Cc1c[nH]c2ccccc12)C(=O)N[C@@H](CCCCN)C(=O)N[C@@H](Cc1ccccc1)C(=O)N[C@@H](Cc1c[nH]cn1)C(N)=O)C(=O)N[C@@H](CCCCN)C(=O)N[C@@H](Cc1ccccc1)C(=O)N[C@@H](Cc1c[nH]cn1)C(N)=O` [di-WP2] (I: H-WLNAKRHHGYKCKFH-NH2 / II: H-WLNAKRHHGYKCKFH-NH2; disulfide I:12-II:12 (inferred); N-terminus assumed): in data set [1], the “Secondary structure (%) Beta” value is 24.5%, the “Secondary structure (%) Helix” value is 0.0%, the “Secondary structure (%) Random” value was 54.7% and the “Secondary structure (%) Turn” value turned out to be 20.8%. In the data set with C. tropicalis, the “killing activities against C. tropicalis in 150 mM NaCl salt” value is “retained”. In addition, the “DCF fluorescence intensity (ROS generation)” value with Candida cells is “little fluorescence”. For the same compound, the MICs in data set [2] was 4 to 8 µg/mL. In addition, in data set [3], the MICs was in the range of 2 to 4 µg/mL. Moreover, the “decrease of killing activities in 150 mM salt” value in the data set on C. albicans strains was 4-8 fold.
`CC(C)C[C@H](NC(=O)CNC(=O)[C@H](Cc1c[nH]cn1)NC(=O)[C@H](Cc1c[nH]cn1)NC(=O)[C@H](CC(C)C)NC(=O)[C@H](CC(C)C)NC(=O)[C@H](C)NC(=O)[C@H](CC(N)=O)NC(=O)[C@H](CC(C)C)NC(=O)[C@@H](N)Cc1c[nH]c2ccccc12)C(=O)N[C@@H](CC(N)=O)C(=O)N[C@@H](CSSC[C@H](NC(=O)[C@H](CC(N)=O)NC(=O)[C@H](CC(C)C)NC(=O)CNC(=O)[C@H](Cc1c[nH]cn1)NC(=O)[C@H](Cc1c[nH]cn1)NC(=O)[C@H](CC(C)C)NC(=O)[C@H](CC(C)C)NC(=O)[C@H](C)NC(=O)[C@H](CC(N)=O)NC(=O)[C@H](CC(C)C)NC(=O)[C@@H](N)Cc1c[nH]c2ccccc12)C(=O)N[C@@H](C)C(=O)N[C@@H](CCCCN)C(=O)NCC(=O)N[C@H](C(=O)N[C@@H](CC(C)C)C(=O)N[C@@H](C)C(N)=O)C(C)C)C(=O)N[C@@H](C)C(=O)N[C@@H](CCCCN)C(=O)NCC(=O)N[C@H](C(=O)N[C@@H](CC(C)C)C(=O)N[C@@H](C)C(N)=O)C(C)C` [di-18Hc, reference compound] (I: H-WLNALLHHGLNCAKGVLA-NH2 / II: H-WLNALLHHGLNCAKGVLA-NH2; disulfide I:12-II:12 (inferred); N-terminus assumed): in data set [1], the “Secondary structure (%) Beta” value came to 29.7%, the “Secondary structure (%) Helix” value was determined as 29.2%, the “Secondary structure (%) Random” value was found to be 30.3% and the “Secondary structure (%) Turn” value stood at 10.8%. Moreover, the “killing activities against C. tropicalis in 150 mM NaCl salt” value with C. tropicalis was “retained”. Besides, the “DCF fluorescence intensity (ROS generation)” value with Candida cells is given as “little fluorescence”. Also, the MICs in data set [2] fell in the range of 4 to 8 µg/mL. Besides, in the data set with C. albicans strains, the “decrease of killing activities in 150 mM salt” value is given as 4-8 fold.
